The test system of the assay is L1210 leukemia ip in BDF1 mice, survival T/C. Kind of assay: NCI In Vivo Anticancer Drug Screen. Data for tumor model L1210 Leukemia (intraperitoneal) in B6D2F1 (BDF1) mice. Conditions: endpoint: mean survival time, higher = longer survival. In short, it runs like this:
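Transplantable tumor model; survival measured in treated vs vehicle control mice. Value = treated/control.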

Where [1] appears, read: dose: 100.0 mg/kg/injection, schedule: Q01DX001 (ip), vehicle: saline.
Where [2] appears, read: dose: 200.0 mg/kg/injection, schedule: Q01DX001 (ip), vehicle: saline.
The mark [3] stands for this setting: dose: 100.0 mg/kg/injection, schedule: Q01DX001 (ip), vehicle: saline with Tween-80.
The mark [4] stands for this setting: dose: 200.0 mg/kg/injection, schedule: Q01DX001 (ip), vehicle: saline with Tween-80.
Setting [5] is: dose: 400.0 mg/kg/injection, schedule: Q01DX001 (ip), vehicle: saline with Tween-80.
Where [6] appears, read: dose: 100.0 mg/kg/injection, schedule: Q04DX002 (ip), vehicle: Klucel (hydroxypropylcellulose) (HPC).
Where [7] appears, read: dose: 200.0 mg/kg/injection, schedule: Q04DX002 (ip), vehicle: Klucel (hydroxypropylcellulose) (HPC).
The mark [8] stands for this setting: dose: 400.0 mg/kg/injection, schedule: Q04DX002 (ip), vehicle: Klucel (hydroxypropylcellulose) (HPC).

Molecules are shown by their SMILES. Values joined by “and” are separate entries in the source; they are usually repeats but may differ in a detail not shown here. Equal entries are not always repeated. Toxic doses and inconclusive results are not listed.

For the compound `COc1ccc(C(=O)O)nc1C`, the T/C (dose: 75.0 mg/kg/injection, schedule: Q01DX001 (ip), vehicle: acetone) is 98 % of control; the T/C (dose: 150.0 mg/kg/injection, schedule: Q01DX001 (ip), vehicle: acetone) was 101 % of control; the T/C (dose: 300.0 mg/kg/injection, schedule: Q01DX001 (ip), vehicle: acetone) was 98 % of control.

Regarding `Clc1ccc(/C=C/c2ccccc2)cc1`, the T/C reads like this: (dose: 44.0 mg/kg/injection, schedule: Q01DX001 (ip), vehicle: other) 96 % of control; (dose: 66.0 mg/kg/injection, schedule: Q01DX001 (ip), vehicle: other) 105 % of control; (dose: 100.0 mg/kg/injection, schedule: Q01DX001 (ip), vehicle: other) 100 % of control; (dose: 150.0 mg/kg/injection, schedule: Q01DX001 (ip), vehicle: other) 97 % of control; (dose: 200.0 mg/kg/injection, schedule: Q01DX001 (ip), vehicle: other) 100 % of control; (dose: 400.0 mg/kg/injection, schedule: Q01DX001 (ip), vehicle: other) 111 % of control.

`COc1cc(/C(C)=N\N(C)C)ccc1O`: the T/C is 100 % of control (dose: 50.0 mg/kg/injection, schedule: Q01DX001 (ip), vehicle: saline); 96 % of control under setting [1]; 100 % of control under setting [2]; 96 % of control (dose: 400.0 mg/kg/injection, schedule: Q01DX001 (ip), vehicle: saline).

With `CC(C)N(C)/N=N/N(C)C(C)C`, the T/C reads like this: under setting [3], 101 % of control; under setting [4], 103 % of control; under setting [5], 117 % of control.

On to `C=C(Br)CN=C=S`, for which the T/C by setting is: (dose: 12.5 mg/kg/injection, schedule: Q01DX009 (ip), vehicle: saline) 96 % of control; (dose: 25.0 mg/kg/injection, schedule: Q01DX009 (ip), vehicle: saline) 104 % of control; (dose: 50.0 mg/kg/injection, schedule: Q01DX009 (ip), vehicle: saline) 102 % of control.

For the compound `O=C(O)c1cccc(OCCCOc2ccccc2)c1`, the T/C reads like this: (dose: 100.0 mg/kg/injection, schedule: Q01DX009 (ip), vehicle: Klucel (hydroxypropylcellulose) (HPC)) 92 % of control; (dose: 200.0 mg/kg/injection, schedule: Q01DX009 (ip), vehicle: Klucel (hydroxypropylcellulose) (HPC)) 90 % of control; (dose: 400.0 mg/kg/injection, schedule: Q01DX009 (ip), vehicle: Klucel (hydroxypropylcellulose) (HPC)) 95 % of control.

In the case of `CCCCCCCCCC(=O)N/N=C/c1cccc([N+](=O)[O-])c1`, the T/C is 97 % of control (dose: 100.0 mg/kg/injection, schedule: Q01DX009 (ip), vehicle: saline with Tween-80); 91 % of control (dose: 200.0 mg/kg/injection, schedule: Q01DX009 (ip), vehicle: saline with Tween-80); 100 % of control (dose: 400.0 mg/kg/injection, schedule: Q01DX009 (ip), vehicle: saline with Tween-80).

As to `c1ccc(C2=C(c3ccccc3)C(c3ccccc3)=C(c3ccccc3)CC2)cc1`, the T/C is, setting by setting: under setting [3], 89 % of control; under setting [4], 89 % of control; under setting [5], 86 % of control.

With `CCOC(=O)CS(=O)(=O)CS(=O)(=O)CC(=O)OCC`, the T/C under setting [6] was 94 % of control, the T/C under setting [7] is 100 % of control and the T/C under setting [8] is 100 % of control.

As for `O=S(=O)(/C=C/c1ccccc1)N1CCOCC1`, the T/C was 111 % of control (dose: 100.0 mg/kg/injection, schedule: Q01DX001 (ip), vehicle: acetone); 90 % of control (dose: 100.0 mg/kg/injection, schedule: Q01DX009 (ip), vehicle: acetone); 100 % of control (dose: 100.0 mg/kg/injection, schedule: Q04DX003 (ip), vehicle: acetone); 102 % of control (dose: 200.0 mg/kg/injection, schedule: Q01DX001 (ip), vehicle: acetone); 93 % of control (dose: 200.0 mg/kg/injection, schedule: Q01DX009 (ip), vehicle: acetone); 105 % of control (dose: 200.0 mg/kg/injection, schedule: Q04DX003 (ip), vehicle: acetone). The T/C (dose: 400.0 mg/kg/injection, schedule: Q01DX001 (ip), vehicle: acetone) is 101 % of control; the T/C (dose: 400.0 mg/kg/injection, schedule: Q01DX009 (ip), vehicle: acetone) is 93 % of control; the T/C (dose: 400.0 mg/kg/injection, schedule: Q04DX003 (ip), vehicle: acetone) was 97 % of control.

As to `CCCCCCOC(=O)C(C)(O)C(Cl)c1ccccc1` (centres undefined), the T/C (dose: 100.0 mg/kg/injection, schedule: Q04DX002 (ip), vehicle: saline) is 100 % of control; the T/C (dose: 200.0 mg/kg/injection, schedule: Q04DX002 (ip), vehicle: saline) is 111 % of control; the T/C (dose: 400.0 mg/kg/injection, schedule: Q04DX002 (ip), vehicle: saline) is 91 % of control.

Regarding `C=C(C)C(=O)Oc1ccccc1-c1ccccc1`, the T/C by setting is: under setting [6], 100 % of control; under setting [7], 96 % of control; under setting [8], 92 % of control.

For `C=C(C)CON=C(c1ccccc1)c1ccccc1`, the T/C is 92 % of control (dose: 100.0 mg/kg/injection, schedule: Q04DX003 (ip), vehicle: saline); 96 % of control (dose: 200.0 mg/kg/injection, schedule: Q04DX003 (ip), vehicle: saline); 97 % of control (dose: 400.0 mg/kg/injection, schedule: Q04DX003 (ip), vehicle: saline).

Turning to `CC1CCCC(NC(=O)N(CCCl)N=O)C1` (centres undefined), the T/C (dose: 8.0 mg/kg/injection, schedule: Q01DX001 (ip), vehicle: other) was 109 % of control; the T/C (dose: 27.0 mg/kg/injection, schedule: Q01DX001 (ip), vehicle: other) was 307 % of control; the T/C (dose: 31.0 mg/kg/injection, schedule: Q01DX001 (ip), vehicle: other) is 170 % of control; the T/C (dose: 35.0 mg/kg/injection, schedule: Q01DX001 (ip), vehicle: other) is 190 % of control; the T/C (dose: 42.0 mg/kg/injection, schedule: Q01DX001 (ip), vehicle: other) is 348 % of control; the T/C (dose: 62.0 mg/kg/injection, schedule: Q01DX001 (ip), vehicle: other) is 275 % of control and 361 % of control. The T/C reads like this: (dose: 71.0 mg/kg/injection, schedule: Q01DX001 (ip), vehicle: other) 301 % of control; (dose: 93.0 mg/kg/injection, schedule: Q01DX001 (ip), vehicle: other) 307 % of control; (dose: 125.0 mg/kg/injection, schedule: Q01DX001 (ip), vehicle: other) 86 % of control; (dose: 286.0 mg/kg/injection, schedule: Q01DX001 (ip), vehicle: other) 88 % of control.

`CCOC(=O)c1cnc(=O)[nH]c1Nc1ccccc1Br`: the T/C was 95 % of control (dose: 100.0 mg/kg/injection, schedule: Q04DX003 (ip), vehicle: gum acacia); 90 % of control (dose: 200.0 mg/kg/injection, schedule: Q04DX003 (ip), vehicle: gum acacia); 95 % of control (dose: 400.0 mg/kg/injection, schedule: Q04DX003 (ip), vehicle: gum acacia).

As for `O=C(OCC1OC(n2cnc3c(=S)nc[nH]c32)C(OC(=O)c2ccc([N+](=O)[O-])cc2)C1OC(=O)c1ccc([N+](=O)[O-])cc1)c1ccc([N+](=O)[O-])cc1` (centres undefined), the T/C reads like this: (dose: 16.5 mg/kg/injection, schedule: Q01DX009 (ip), vehicle: saline with Tween-80) 95 % of control; (dose: 33.0 mg/kg/injection, schedule: Q01DX009 (ip), vehicle: saline with Tween-80) 117 % of control; under setting [1], 121 % of control; (dose: 100.0 mg/kg/injection, schedule: Q01DX Z (ip), vehicle: other) 112 % of control; (dose: 132.0 mg/kg/injection, schedule: Q01DX001 (ip), vehicle: saline) 111 % of control and 118 % of control; under setting [2], 106 % of control and 120 % of control. Moreover, the T/C (dose: 200.0 mg/kg/injection, schedule: Q01DX009 (ip), vehicle: saline) was 152 % of control; the T/C (dose: 300.0 mg/kg/injection, schedule: Q01DX001 (ip), vehicle: saline) is 117 % of control; the T/C (dose: 800.0 mg/kg/injection, schedule: Q01DX Z (ip), vehicle: other) is 93 % of control.

On to `Cc1cccc(C)c1/[N+]([O-])=C/c1ccc(Cl)cc1`, for which the T/C (dose: 100.0 mg/kg/injection, schedule: Q01DX001 (ip), vehicle: Klucel (hydroxypropylcellulose) (HPC)) is 101 % of control; the T/C (dose: 200.0 mg/kg/injection, schedule: Q01DX001 (ip), vehicle: Klucel (hydroxypropylcellulose) (HPC)) was 98 % of control; the T/C (dose: 400.0 mg/kg/injection, schedule: Q01DX001 (ip), vehicle: Klucel (hydroxypropylcellulose) (HPC)) is 108 % of control.

The values above are taken from PubChem BioAssay AID248 (DTP/NCI, 2004).
